Assay results from ChEMBL document CHEMBL5465560, “Selectivity Literature for EUbOPEN Chemogenomic Library” (2024).
Each block holds one compound with its values, some of them ahead of it.

Legend:
[1] = target: Serine/threonine-protein kinase PLK3 (Homo sapiens, UniProt Q9H4B4); experiment: Selectivity interaction (Kinase panel (Invitrogen)) EUB0000639a PLK3; conditions: at 200 nM
[2] = target: T1, Dual specificity mitogen-activated protein kinase kinase 3 (Homo sapiens) (UniProt P46734); experiment: Selectivity interaction (KinomeScan (DiscoverX)) EUB0000595a MAP2K3; conditions: at 10 µM
T1 sequence (whole entry): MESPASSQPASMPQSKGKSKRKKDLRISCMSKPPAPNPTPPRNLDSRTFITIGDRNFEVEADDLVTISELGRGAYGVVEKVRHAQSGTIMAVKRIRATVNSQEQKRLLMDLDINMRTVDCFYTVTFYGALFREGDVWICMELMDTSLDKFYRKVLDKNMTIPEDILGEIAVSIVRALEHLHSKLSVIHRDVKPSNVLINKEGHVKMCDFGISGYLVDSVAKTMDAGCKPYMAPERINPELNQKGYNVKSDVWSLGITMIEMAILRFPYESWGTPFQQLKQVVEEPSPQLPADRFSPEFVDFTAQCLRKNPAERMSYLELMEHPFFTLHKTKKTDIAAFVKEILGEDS

[3] = target: Dual specificity mitogen-activated protein kinase kinase 1 (Homo sapiens, UniProt Q02750); experiment: Selectivity interaction (KinomeScan (DiscoverX)) EUB0001049a MAP2K1; conditions: at 1 µM
Dual specificity mitogen-activated protein kinase kinase 1, sequence (Q02750 whole entry, the tested form may be a part): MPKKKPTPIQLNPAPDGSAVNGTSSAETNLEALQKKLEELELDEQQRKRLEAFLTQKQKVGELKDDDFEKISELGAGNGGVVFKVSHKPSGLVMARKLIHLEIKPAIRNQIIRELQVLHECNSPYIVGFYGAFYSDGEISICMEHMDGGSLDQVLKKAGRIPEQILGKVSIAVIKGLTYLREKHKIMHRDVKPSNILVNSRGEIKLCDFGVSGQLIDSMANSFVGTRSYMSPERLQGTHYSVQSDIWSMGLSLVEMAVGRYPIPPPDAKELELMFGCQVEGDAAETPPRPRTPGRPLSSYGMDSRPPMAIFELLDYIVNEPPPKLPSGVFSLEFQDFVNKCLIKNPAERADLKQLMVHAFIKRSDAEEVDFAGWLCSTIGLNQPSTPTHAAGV

[4] = target: T2, Ankyrin repeat and protein kinase domain-containing protein 1 (Homo sapiens) (UniProt Q8NFD2); experiment: Selectivity interaction (KinomeScan (DiscoverX)) EUB0001079a ANKK1; conditions: at 1 µM
T2 sequence (whole entry): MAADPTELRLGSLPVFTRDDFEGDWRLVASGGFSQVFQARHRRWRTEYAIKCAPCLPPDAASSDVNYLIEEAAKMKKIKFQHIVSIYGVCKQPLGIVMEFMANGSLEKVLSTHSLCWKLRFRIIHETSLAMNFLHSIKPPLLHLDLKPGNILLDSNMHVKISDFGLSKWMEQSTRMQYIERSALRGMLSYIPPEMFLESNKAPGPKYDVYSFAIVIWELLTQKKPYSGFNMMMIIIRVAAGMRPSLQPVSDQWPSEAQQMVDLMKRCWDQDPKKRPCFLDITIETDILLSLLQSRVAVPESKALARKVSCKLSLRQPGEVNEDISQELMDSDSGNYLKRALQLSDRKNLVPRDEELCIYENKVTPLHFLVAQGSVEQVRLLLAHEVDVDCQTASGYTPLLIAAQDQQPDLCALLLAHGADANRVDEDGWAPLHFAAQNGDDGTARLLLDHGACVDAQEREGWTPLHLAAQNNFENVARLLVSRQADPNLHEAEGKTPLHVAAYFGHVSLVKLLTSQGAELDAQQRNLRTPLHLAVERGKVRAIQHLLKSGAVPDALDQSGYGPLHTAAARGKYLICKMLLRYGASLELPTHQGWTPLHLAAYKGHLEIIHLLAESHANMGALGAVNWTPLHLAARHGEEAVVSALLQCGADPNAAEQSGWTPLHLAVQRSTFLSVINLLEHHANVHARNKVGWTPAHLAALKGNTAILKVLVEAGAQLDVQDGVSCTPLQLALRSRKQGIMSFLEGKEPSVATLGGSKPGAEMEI

[5] = target: Tyrosine-protein kinase HCK (Homo sapiens) (UniProt P08631); experiment: Selectivity interaction (KinomeScan (DiscoverX)) EUB0001079a HCK; conditions: at 1 µM
Tyrosine-protein kinase HCK (Homo sapiens), sequence (P08631 2-526 limits assumed): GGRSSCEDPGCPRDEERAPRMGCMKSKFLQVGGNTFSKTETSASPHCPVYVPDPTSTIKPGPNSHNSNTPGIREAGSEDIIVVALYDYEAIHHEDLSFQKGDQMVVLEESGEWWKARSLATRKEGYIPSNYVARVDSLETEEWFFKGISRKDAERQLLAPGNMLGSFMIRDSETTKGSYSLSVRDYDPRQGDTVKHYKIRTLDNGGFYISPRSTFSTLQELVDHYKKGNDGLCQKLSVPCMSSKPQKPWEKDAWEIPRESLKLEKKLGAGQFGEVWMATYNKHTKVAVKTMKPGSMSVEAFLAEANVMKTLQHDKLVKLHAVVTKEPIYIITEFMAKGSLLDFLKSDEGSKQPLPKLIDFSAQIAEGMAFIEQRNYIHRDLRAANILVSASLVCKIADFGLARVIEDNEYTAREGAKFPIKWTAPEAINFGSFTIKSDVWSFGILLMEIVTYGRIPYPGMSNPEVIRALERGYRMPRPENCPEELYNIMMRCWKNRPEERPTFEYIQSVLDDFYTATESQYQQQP

[6] = target: T3, Mitogen-activated protein kinase kinase kinase 19 (Homo sapiens) (UniProt Q56UN5); experiment: Selectivity interaction (KinomeScan (DiscoverX)) EUB0000229b MAP3K19; conditions: at 10 µM
T3 sequence (whole entry): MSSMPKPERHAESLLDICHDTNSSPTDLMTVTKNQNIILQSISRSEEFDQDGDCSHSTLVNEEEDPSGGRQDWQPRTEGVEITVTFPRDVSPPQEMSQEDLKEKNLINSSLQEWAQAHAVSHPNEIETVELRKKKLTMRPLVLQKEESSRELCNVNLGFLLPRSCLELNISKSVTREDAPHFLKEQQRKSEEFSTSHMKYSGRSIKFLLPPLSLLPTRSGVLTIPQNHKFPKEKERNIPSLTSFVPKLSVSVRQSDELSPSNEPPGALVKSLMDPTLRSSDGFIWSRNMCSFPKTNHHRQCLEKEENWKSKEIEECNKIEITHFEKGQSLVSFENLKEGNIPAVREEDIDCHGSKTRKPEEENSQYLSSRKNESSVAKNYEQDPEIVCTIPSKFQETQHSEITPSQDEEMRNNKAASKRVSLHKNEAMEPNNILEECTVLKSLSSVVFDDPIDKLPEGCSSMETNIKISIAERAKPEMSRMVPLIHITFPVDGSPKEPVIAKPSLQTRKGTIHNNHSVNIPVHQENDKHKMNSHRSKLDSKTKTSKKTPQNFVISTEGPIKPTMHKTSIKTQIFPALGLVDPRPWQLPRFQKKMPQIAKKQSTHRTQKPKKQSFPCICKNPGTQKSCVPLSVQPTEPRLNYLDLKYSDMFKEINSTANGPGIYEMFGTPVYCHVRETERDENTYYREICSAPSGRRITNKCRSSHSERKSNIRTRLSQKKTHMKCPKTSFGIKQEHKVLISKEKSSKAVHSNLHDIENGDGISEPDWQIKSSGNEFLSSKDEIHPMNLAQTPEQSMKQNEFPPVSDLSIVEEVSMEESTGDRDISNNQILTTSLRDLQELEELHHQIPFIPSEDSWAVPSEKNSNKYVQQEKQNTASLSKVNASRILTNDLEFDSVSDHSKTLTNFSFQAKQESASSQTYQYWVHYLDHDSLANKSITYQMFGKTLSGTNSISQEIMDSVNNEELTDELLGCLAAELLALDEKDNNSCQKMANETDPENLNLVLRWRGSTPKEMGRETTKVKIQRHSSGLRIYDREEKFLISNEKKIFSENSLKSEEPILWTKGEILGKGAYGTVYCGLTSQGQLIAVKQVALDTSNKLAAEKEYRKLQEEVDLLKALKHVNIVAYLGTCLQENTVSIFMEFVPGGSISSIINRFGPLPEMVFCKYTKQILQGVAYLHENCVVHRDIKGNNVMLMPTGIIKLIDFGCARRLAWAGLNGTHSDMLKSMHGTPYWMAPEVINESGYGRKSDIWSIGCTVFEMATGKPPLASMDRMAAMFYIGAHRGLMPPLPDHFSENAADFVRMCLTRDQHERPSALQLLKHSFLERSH

[7] = target: Serine/threonine-protein kinase 32A (Homo sapiens) (UniProt Q8WU08); conditions: at 10 µM
Serine/threonine-protein kinase 32A (Homo sapiens), sequence (Q8WU08 whole entry): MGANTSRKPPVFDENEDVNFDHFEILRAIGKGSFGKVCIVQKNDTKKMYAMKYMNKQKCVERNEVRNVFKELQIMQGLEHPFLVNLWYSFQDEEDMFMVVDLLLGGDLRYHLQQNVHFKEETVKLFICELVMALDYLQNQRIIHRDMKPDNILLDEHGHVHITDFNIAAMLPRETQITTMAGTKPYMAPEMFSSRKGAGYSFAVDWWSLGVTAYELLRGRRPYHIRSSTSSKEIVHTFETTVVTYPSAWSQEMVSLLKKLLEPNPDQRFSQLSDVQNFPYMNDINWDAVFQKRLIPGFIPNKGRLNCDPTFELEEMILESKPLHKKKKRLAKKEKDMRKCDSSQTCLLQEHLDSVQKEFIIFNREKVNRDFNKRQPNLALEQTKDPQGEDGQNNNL

Serine/threonine-protein kinase PLK3, sequence (Q9H4B4 whole entry, looked up): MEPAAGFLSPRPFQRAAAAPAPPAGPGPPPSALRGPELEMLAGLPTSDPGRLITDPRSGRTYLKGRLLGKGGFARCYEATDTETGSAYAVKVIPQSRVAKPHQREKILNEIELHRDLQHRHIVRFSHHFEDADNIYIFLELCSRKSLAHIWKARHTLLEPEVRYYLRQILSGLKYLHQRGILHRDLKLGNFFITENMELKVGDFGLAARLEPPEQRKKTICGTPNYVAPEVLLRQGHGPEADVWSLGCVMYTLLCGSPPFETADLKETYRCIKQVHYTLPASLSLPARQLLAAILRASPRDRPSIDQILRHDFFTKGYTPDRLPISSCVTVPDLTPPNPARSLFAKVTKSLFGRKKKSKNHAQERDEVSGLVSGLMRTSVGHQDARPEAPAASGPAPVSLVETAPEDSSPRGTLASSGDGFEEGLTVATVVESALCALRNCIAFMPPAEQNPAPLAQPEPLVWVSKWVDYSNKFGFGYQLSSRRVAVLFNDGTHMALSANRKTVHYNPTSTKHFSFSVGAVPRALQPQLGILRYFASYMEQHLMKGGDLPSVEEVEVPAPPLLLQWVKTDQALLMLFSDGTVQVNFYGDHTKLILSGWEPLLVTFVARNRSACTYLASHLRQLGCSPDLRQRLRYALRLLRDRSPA

- % of inhibition [1]: 5.09%
SMILES: CC[C@@H]1[C@H](F)C(=O)N[C@@H]1COc1nccc2cc(C(N)=O)c(OC)cc12 [ZIMLOVISERTIB]

SMILES: COCC(=O)NC/C=C/c1ccc2ncnc(Nc3ccc(Oc4ccc(C)nc4)c(C)c3)c2c1 [CP-724714]
- % of control [2]: 100%

SMILES: COc1cc(Nc2nc(C)cc(-c3cnn4nc(OC)ccc34)n2)cc(C(F)(F)F)c1
- % of control [3]: 80%

SMILES: Nc1cnc(N2CCc3cc(S(=O)(=O)Nc4c(F)cc(Cl)cc4F)cc(N4CCCC4=O)c32)nc1 [TP-020n]
- % of control [4]: 100%
- % of control [5]: 100%

SMILES: COc1cc(N(C)c2ccnc3ccc(C(F)(F)F)cc23)cc(OC)c1OC
- % binding [6]: 94%

SMILES: Cc1cc([C@@H](C)Nc2ccccc2C(=O)O)c2nc(N3CCOCC3)cc(=O)n2c1 [AZD-6482]
- % of control [7]: 89%
